Measurements taken from article PMC7714403 (JCI Insight, 2020).

Tests used:
[1] = biological target: MARK2 (Homo sapiens, UniProt Q7KZI7); assay: KiNativ, OCI cells live cell; type: cell-based; settings: 2 h, labeling site Lys1, peptide […]
[2] = biological target: MAP3K3 (Homo sapiens, UniProt Q99759); assay: KiNativ, OCI cells live cell; type: cell-based; settings: 2 h, labeling site Lys1, peptide […]
[3] = biological target: PITSLRE (Homo sapiens, UniProt P21127); assay: KiNativ, OCI cells live cell; type: cell-based; settings: 2 h, labeling site Lys2, peptide […]
PITSLRE, sequence (P21127 whole entry): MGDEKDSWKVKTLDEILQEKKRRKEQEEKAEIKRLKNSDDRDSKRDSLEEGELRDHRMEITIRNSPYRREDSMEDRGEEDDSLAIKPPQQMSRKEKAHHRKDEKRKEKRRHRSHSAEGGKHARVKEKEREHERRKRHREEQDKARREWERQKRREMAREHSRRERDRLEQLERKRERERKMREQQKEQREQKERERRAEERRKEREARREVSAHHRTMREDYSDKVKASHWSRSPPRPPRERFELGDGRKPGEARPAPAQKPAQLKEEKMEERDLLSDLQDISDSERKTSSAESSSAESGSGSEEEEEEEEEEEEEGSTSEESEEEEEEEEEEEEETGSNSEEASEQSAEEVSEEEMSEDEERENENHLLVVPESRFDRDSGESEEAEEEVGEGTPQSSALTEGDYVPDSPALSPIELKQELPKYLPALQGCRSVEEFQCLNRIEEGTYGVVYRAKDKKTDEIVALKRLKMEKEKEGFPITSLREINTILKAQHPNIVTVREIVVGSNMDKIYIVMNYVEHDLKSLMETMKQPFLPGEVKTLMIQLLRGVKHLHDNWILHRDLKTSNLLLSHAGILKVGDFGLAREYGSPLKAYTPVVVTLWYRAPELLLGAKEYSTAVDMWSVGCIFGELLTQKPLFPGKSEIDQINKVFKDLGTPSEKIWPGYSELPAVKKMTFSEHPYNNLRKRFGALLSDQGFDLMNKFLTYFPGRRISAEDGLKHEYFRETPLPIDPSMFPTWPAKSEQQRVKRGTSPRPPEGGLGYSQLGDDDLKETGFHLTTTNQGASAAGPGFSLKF

[4] = system: Ba/F3 cells expressing FLT3 D835H/Y; assay: MTT viability assay; type: cell-based; settings: Mus musculus, BaF3, read-out: IC50 values, range
Description: (§1) Drug treatments were carried out for 72 hours. Details are provided in the Supplemental Methods.

[5] = system: MV4-11, MOLM13, and MOLM13-RES cells; assay: MTT viability assay; type: cell-based; settings: Homo sapiens; range over MV4-11, MOLM13, MOLM13-RES
Description: as §1

[6] = biological target: MAP4K5 (Homo sapiens, UniProt Q9Y4K4); assay: KiNativ, OCI cells live cell; type: cell-based; settings: 2 h
MAP4K5, sequence (Q9Y4K4 whole entry): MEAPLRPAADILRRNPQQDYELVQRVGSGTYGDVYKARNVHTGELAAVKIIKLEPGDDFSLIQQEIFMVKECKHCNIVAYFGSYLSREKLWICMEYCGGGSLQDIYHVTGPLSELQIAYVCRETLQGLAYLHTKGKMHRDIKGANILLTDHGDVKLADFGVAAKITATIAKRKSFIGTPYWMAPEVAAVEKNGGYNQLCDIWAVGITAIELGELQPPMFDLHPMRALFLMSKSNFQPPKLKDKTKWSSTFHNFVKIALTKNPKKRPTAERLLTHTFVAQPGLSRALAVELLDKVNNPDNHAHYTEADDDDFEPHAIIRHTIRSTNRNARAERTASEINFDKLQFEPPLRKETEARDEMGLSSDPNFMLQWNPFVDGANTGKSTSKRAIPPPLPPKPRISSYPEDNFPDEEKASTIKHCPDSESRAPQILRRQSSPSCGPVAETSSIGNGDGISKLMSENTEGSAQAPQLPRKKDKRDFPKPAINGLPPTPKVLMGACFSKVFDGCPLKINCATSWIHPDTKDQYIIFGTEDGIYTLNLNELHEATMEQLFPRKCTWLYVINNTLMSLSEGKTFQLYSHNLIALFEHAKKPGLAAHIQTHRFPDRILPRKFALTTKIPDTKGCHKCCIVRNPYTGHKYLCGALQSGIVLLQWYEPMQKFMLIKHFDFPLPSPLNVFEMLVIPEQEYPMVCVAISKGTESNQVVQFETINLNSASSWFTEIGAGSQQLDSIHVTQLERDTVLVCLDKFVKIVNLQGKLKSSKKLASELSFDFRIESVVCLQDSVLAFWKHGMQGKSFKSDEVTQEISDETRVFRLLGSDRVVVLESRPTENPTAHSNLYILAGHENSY

[7] = biological target: CASK (Homo sapiens, UniProt O14936); assay: KiNativ, OCI cells live cell; type: cell-based; settings: 2 h, labeling site Lys1, peptide […]
[8] = biological target: MST3 (Homo sapiens, UniProt Q9Y6E0); assay: KiNativ, OCI cells live cell; type: cell-based; settings: labeling site Lys2, peptide DIKAANVLLSEHGEVK
[9] = biological target: T1, FGFR1 (Homo sapiens, UniProt P11362); assay: KdELECT binding assay
T1 construct: purchased Eurofins DiscoverX

[10] = system: 40 kinases; settings: 200 nM; 11 of 40 kinases; cited from earlier work
[11] = biological target: NEK7 (Homo sapiens, UniProt Q8TDX7); assay: KiNativ, OCI cells live cell; type: cell-based; settings: 2 h, labeling site Lys1, peptide […]
[12] = system: Wnk1, Wnk2, Wnk3; assay: KiNativ, OCI cells live cell; type: cell-based, human; settings: labeling site Lys2, peptide DLKCDNIFITGPTGSVK
[13] = biological target: p70S6Kb (Homo sapiens, UniProt Q9UBS0); assay: KiNativ, OCI cells live cell; type: cell-based; settings: 2 h
p70S6Kb, sequence (Q9UBS0 whole entry): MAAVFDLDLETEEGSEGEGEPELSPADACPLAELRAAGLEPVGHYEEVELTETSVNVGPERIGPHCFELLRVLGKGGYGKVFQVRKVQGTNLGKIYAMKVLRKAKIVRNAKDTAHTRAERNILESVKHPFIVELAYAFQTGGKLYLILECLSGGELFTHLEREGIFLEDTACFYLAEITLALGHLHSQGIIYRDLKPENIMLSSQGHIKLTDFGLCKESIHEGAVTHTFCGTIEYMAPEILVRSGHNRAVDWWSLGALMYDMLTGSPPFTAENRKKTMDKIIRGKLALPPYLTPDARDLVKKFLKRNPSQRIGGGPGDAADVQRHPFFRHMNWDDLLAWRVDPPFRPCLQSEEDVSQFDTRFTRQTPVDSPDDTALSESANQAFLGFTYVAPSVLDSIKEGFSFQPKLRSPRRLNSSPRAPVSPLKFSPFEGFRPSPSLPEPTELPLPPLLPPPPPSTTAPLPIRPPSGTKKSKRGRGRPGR

[14] = biological target: MLK3 (Homo sapiens, UniProt Q16584); assay: KiNativ, OCI cells live cell; type: cell-based; settings: labeling site Lys2, peptide DLKSNNILLLQPIESDDMEHK
MLK3, sequence (Q16584 whole entry): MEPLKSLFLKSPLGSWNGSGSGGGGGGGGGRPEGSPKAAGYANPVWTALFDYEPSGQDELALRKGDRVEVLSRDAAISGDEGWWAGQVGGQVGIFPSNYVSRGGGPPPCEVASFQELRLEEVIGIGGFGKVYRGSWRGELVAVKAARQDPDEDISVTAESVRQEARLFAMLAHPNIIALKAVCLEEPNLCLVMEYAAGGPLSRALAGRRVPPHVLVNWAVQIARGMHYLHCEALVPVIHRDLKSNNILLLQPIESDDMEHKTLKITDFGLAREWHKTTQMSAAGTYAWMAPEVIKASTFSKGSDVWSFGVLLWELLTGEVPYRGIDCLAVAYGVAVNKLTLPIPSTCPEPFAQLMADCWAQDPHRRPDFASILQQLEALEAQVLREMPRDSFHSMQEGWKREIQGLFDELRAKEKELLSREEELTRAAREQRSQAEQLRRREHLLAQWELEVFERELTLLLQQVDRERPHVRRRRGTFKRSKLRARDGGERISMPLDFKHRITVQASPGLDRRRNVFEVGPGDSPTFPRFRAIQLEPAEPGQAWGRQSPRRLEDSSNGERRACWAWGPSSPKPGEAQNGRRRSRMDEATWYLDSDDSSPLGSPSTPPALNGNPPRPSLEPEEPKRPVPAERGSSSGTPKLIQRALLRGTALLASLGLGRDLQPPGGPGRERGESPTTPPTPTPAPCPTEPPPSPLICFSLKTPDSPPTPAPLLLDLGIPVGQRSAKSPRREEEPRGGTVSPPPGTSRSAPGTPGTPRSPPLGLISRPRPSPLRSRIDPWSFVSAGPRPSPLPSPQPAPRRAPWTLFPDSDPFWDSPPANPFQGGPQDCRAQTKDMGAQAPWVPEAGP

[15] = biological target: T2, ILK (Homo sapiens, UniProt Q13418); assay: KiNativ, OCI cells live cell; type: cell-based; settings: 2 h
T2 sequence (Q13418 1-452): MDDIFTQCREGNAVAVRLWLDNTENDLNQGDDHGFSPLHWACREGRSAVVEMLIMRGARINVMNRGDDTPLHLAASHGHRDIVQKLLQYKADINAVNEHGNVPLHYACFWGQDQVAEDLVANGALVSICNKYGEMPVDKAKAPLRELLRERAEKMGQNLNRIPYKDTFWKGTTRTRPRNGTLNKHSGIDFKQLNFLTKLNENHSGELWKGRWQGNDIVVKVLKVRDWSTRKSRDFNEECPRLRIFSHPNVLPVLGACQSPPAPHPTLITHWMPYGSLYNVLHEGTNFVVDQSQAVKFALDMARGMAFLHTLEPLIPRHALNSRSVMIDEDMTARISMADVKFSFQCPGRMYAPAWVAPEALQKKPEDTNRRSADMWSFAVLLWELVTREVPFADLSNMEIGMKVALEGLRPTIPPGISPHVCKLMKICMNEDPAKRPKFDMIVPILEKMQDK

[16] = biological target: IRAK1 (Homo sapiens, UniProt P51617); assay: KiNativ, OCI cells live cell; type: cell-based; settings: 2 h, labeling site Lys2, peptide […]
IRAK1, sequence (P51617 whole entry): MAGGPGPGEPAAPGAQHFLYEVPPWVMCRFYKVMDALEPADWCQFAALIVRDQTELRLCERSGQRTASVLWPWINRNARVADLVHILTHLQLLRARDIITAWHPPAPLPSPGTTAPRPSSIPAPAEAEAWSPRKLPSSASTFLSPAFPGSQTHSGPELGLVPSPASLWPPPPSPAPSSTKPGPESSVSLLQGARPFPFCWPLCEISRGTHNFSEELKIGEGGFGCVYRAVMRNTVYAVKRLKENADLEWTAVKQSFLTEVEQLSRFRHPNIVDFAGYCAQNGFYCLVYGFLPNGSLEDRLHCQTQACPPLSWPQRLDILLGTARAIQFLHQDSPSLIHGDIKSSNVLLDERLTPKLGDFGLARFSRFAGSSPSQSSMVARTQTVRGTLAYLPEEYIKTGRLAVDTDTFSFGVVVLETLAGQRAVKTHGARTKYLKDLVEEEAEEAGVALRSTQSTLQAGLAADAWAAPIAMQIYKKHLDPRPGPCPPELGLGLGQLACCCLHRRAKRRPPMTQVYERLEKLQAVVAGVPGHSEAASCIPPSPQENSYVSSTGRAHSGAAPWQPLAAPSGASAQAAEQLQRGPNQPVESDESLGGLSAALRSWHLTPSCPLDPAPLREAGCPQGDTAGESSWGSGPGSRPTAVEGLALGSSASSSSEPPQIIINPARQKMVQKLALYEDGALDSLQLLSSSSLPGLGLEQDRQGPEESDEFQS

[17] = biological target: Wee1 (Homo sapiens, UniProt P30291); assay: KiNativ, OCI cells live cell; type: cell-based; settings: 2 h, labeling site Lys2, peptide […]
Wee1, sequence (P30291 whole entry): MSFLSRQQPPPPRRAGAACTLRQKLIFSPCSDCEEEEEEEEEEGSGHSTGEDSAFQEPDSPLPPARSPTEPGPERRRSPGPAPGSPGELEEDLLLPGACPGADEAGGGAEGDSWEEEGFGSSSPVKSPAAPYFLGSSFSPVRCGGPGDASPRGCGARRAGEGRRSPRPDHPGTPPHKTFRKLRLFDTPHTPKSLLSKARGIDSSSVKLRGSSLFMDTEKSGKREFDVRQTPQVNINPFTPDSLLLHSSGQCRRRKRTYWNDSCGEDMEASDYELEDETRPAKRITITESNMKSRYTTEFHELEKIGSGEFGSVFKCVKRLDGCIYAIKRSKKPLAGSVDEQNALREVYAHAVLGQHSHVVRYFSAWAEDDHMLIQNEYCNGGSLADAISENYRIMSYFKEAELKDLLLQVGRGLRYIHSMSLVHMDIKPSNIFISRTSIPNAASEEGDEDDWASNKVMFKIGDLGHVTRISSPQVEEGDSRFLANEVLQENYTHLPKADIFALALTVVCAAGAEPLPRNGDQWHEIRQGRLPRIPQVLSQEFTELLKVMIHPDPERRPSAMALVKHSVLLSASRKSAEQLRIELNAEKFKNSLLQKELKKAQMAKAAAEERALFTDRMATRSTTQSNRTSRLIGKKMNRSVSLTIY

[18] = system: MAP3K2, MAP3K3; assay: KiNativ, OCI cells live cell; type: cell-based, human; settings: labeling site Lys2, peptide DIKGANILR
[19] = system: TAO1, TAO3; assay: KiNativ, OCI cells live cell; type: cell-based, human; settings: labeling site Lys2, peptide DIKAGNILLTEPGQVK
[20] = biological target: TBK1 (Homo sapiens, UniProt Q9UHD2); assay: KiNativ, OCI cells live cell; type: cell-based; settings: 2 h, labeling site Lys1, peptide […]
[21] = biological target: IRE1 (Homo sapiens, UniProt O75460); assay: KiNativ, OCI cells live cell; type: cell-based; settings: 2 h, labeling site Lys2, peptide […]
[22] = biological target: CDK10 (Homo sapiens, UniProt Q15131); assay: KiNativ, OCI cells live cell; type: cell-based; settings: 2 h, labeling site Lys2, peptide […]
[23] = biological target: CDC2 (Homo sapiens, UniProt P06493); assay: KiNativ, OCI cells live cell; type: cell-based; settings: 2 h
CDC2, sequence (P06493 whole entry): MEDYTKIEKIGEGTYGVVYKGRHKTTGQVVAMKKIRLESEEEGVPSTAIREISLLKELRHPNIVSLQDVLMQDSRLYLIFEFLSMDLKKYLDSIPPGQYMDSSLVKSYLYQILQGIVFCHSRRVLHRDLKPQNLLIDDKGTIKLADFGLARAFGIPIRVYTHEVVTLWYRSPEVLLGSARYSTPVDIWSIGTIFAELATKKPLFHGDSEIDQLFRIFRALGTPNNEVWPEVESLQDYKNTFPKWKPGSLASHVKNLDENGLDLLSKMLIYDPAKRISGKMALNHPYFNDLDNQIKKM

[24] = biological target: CDK7 (Homo sapiens, UniProt P50613); assay: KiNativ, OCI cells live cell; type: cell-based; settings: 2 h, labeling site Lys2, peptide […]
[25] = system: ROCK1, ROCK2; assay: KiNativ, OCI cells live cell; type: cell-based, human
[26] = biological target: T3, AURKA (Homo sapiens, UniProt O14965); assay: KdELECT binding assay
T3 construct: purchased Eurofins DiscoverX
T3 sequence (O14965 whole entry): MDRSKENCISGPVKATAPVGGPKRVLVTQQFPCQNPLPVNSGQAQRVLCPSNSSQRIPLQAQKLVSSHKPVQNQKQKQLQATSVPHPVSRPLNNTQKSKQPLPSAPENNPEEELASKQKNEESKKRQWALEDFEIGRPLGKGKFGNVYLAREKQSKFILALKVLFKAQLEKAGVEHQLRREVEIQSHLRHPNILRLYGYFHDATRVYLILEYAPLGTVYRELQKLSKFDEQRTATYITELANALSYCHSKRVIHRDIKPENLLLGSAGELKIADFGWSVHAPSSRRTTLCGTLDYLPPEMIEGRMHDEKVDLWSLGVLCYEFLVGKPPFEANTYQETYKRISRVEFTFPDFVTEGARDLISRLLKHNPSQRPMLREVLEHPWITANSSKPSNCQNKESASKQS

## CN1CCN(Cc2ccc(Nc3ncc(Cl)c(Nc4ccccc4S(=O)(=O)N(C)C)n3)cc2)CC1 [TP-0903]
[1]
  inhibition at 0.1 µM: 37.7%
[2]
  inhibition at 0.1 µM: 20%
[3]
  inhibition at 0.1 µM: -18.9%
[4]
  IC50: 16 to 22 nM
[5]
  IC50: 16 to 21 nM
[6]; labeling site Lys1, peptide NVHTGELAAVKIIK
  inhibition at 0.1 µM: 28.4%
[6]; labeling site Lys2, peptide DIKGANILLTDHGDVK
  inhibition at 0.1 µM: 60.8%
[7]
  inhibition at 0.1 µM: 31.2%
[8]
  Inhibition: 35.2%
[9]
  Kd: 21 nM
[10]
  Inhibition of kinases: > 50%
[11]
  inhibition at 0.1 µM: -38.8%
[12]
  Inhibition: -14.9%
[13]; labeling site Lys1, peptide IYAMKVLR
  inhibition at 0.1 µM: -2.8%
[13]; labeling site Lys2, peptide DLKPENIMLSSQGHIK
  inhibition at 0.1 µM: -18.3%
[14]
  Inhibition: 31.9%
[15]; labeling site Lys1, peptide WQGNDIVVKVLK
  inhibition at 0.1 µM: -21.7%
[15]; labeling site Protein Kinase Domain, peptide ISMADVKFSFQCPGR
  inhibition at 0.1 µM: -42.5%
[16]
  inhibition at 0.1 µM: 62.8%
[17]
  inhibition at 0.1 µM: 67.8%
[18]
  Inhibition: 21.4%
[19]
  Inhibition: 73.9%
[20]
  inhibition at 0.1 µM: 83%
[21]
  inhibition at 0.1 µM: 33.5%
[22]
  inhibition at 0.1 µM: 10%
[23]; labeling site Lys1, peptide TTGQVVAMKK
  inhibition at 0.1 µM: -4.5%
[23]; labeling site Lys2, peptide DLKPQNLLIDDK
  inhibition at 0.1 µM: -2.5%
[23]; labeling site Protein Kinase Domain, peptide KPLFHGDSEIDQLFR
  inhibition at 0.1 µM: -37.1%
[24]
  inhibition at 0.1 µM: 95.7%
[25]; labeling site Lys1, peptide VYAMKLLSK
  Inhibition: -8.5%
[25]; labeling site Lys2, peptide DVKPDNMLLDK
  Inhibition: -30.5%
[26]
  Kd: < 5 nM
